Results as given in paper PMC12426935, “On-Cell Saturation Transfer Difference NMR Spectroscopy on Ion Channels: Characterizing Negative Allosteric Modulator Binding Interactions of P2X7” (Journal of the American Chemical Society, 2025).
Positions count from the first letter of the chain named. Where two headings read alike, the source gives them in different places.

Legend:
F103A hP2X7 = molecular target: T1, F103A hP2X7 (Homo sapiens, UniProt Q99572, F103A); assay: fura-2 intracellular calcium assay on HEK-293 stable cell line expressing NAM-site mutant F103A hP2X7; format: cell-based; conditions: for IC50: n = 3
T1 sequence (Q99572 1-595 F103A): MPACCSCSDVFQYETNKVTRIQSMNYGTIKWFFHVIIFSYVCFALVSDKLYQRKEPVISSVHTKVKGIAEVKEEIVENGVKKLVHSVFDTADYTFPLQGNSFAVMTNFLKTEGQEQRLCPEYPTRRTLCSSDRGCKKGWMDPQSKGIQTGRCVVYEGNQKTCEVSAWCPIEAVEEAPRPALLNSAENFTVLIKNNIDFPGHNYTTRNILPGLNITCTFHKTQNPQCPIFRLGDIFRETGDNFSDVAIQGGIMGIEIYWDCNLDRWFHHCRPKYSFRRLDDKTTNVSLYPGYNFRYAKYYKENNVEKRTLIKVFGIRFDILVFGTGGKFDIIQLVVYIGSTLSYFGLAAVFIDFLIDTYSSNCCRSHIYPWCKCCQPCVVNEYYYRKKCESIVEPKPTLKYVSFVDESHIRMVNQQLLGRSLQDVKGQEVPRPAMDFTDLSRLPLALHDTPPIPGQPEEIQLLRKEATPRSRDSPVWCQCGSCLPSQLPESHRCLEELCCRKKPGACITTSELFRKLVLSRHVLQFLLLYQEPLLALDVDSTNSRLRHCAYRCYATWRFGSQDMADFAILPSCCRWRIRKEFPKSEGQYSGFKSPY
Experimental: (§1) Transfection was performed using lipofectamine 2000 (Fisher Scientific), and cells were subjected to Geneticin (800 μg/mL) selection for 2–3 weeks. This was followed by single cell cloning by limiting dilution in 96-well plates. Individual clones were selected for further study based on ATP-induced TO-PRO-3 uptake on a BD Cytoflex flow cytometer. Cell lines were maintained in DMEM:F12 media supplemented with 10% fetal bovine serum (PanBiotech), penicillin and streptomycin (Fisher Scientific) and kept in a humidified incubator with 5% CO2. Stable P2X7-expressing cells were kept under Geneticin selection at a concentration of 400 μg/mL. Passaging was performed twice weekly using 0.25% Trypsin-EDTA (Fisher Scientific).
(§2) P2X7 responses were measured by monitoring intracellular calcium responses using fura-2AM loaded cells. Cells were plated at 2–2.5 × 10^4 cells/well the day before experiments in 96-well plates (NUNC) coated with 50 μg/mL poly-D-lysine (Merck Millipore). A loading buffer containing 2 μM fura-2AM (HelloBio) and 250 μM sulfinpyrazone (Merck Millipore) in a low divalent buffer (145 mM NaCl, 5 mM KCl, 0.2 mM CaCl2, 10 mM HEPES, 13 mM glucose, pH 7.3) was added to cells for 45 min at 37 °C. After loading, the buffer was removed and replaced with calcium-containing extracellular solution (145 mM NaCl, 5 mM KCl, 2 mM CaCl2, 10 mM HEPES, 13 mM glucose, pH 7.3). Responses were measured using a Flexstation 3 plate reader (Molecular Devices) with dual excitation wavelengths of 340 and 380 nm and single emission wavelength of 510 nm. The sample interval was 3.5 s, and each well was recorded for 180 s. Fura-2 ratios were calculated in Softmax Pro v5.4; zero baseline was applied, and responses were measured as normalized area under the curve (AUC). Dose inhibition curves were plotted using GraphPad Prism v6 nonlinear regression (three parameter fit) and log IC50 values reported.

human P2X7 (WT hP2X7) = molecular target: T2, human P2X7 (WT hP2X7) (Homo sapiens, UniProt Q99572); assay: fura-2 intracellular calcium assay on HEK-293 stable cell line expressing human P2X7; format: cell-based
T2 sequence (Q99572 1-595): T1 sequence (Q99572 1-595 F103A) with A103F
Experimental: as §1
as §2, with “A loading buffer containing 2 μM fura-2AM (HelloBio) and 250 μM sulfinpyrazone (Merck Millipore) in a low divalent buffer (145 mM NaCl, 5 mM KCl, 0.2 mM CaCl2, 10 mM HEPES, 13 mM glucose, pH 7.3) was added to cells for 45 min at 37 °C. After loading, the buffer was removed and replaced with calcium-containing extracellular solution (145 mM NaCl, 5 mM KCl, 2 mM CaCl2, 10 mM HEPES, 13 mM glucose, pH 7.3).” left out

## O=C(NCC1(N2CCN(c3ccccc3)CC2)CCOCC1)c1cccnc1Sc1ccccc1 [JNJ-47965567]
F103A hP2X7; F103A hP2X7, agonist ATP, log IC50 ± standard error, read-out: Log IC50 (converted)
  IC50: 155 nM
F103A hP2X7; F103A hP2X7, agonist ATP, mean in brackets, read-out: mean IC50
  IC50: 161 nM
F103A hP2X7; F103A hP2X7, agonist BzATP, mean in brackets, read-out: mean IC50
  IC50: 59.1 nM
F103A hP2X7; F103A hP2X7 vs hP2X7
  loss in potency (increase in IC50) at F103A relative to WT hP2X7: 10 fold
Human P2X7 (WT hP2X7)
  IC50: 26 nM
Human P2X7 (WT hP2X7); Human P2X7, species comparison (Table 1), log IC50 ± standard error, n = 3, read-out: Log IC50 (converted)
  IC50: 9.12 nM
Human P2X7 (WT hP2X7); Human P2X7, species comparison (Table 1), mean in brackets, n = 3, read-out: mean IC50
  IC50: 9 nM
Human P2X7 (WT hP2X7); WT hP2X7, agonist ATP (Table 2), log IC50 ± standard error, n = 3, read-out: Log IC50 (converted)
  IC50: 11.9 nM
Human P2X7 (WT hP2X7); WT hP2X7, agonist ATP (Table 2), mean in brackets, n = 3, read-out: mean IC50
  IC50: 11.7 nM
